Data taken from US20140378408A1, “NUCLEOSIDE 5'-PHOSPHOROTHIOATE ANALOGUES AND USES THEREOF” (BAR-ILAN UNIVERSITY, an Israeli University, priority 2012, published 2014).
Like-named read-outs stand apart in the source and are kept apart here.

Legend:
cortical neurons = experiment: Neuroprotection of cultured cortical neurons exposed to FeSO4 or FeSO4/H2O2; assay type: cell-based; details: for protection: co-application with FeSO4 3 μM
Method: FIGS. 10A-10B show the neuroprotective effect of ATP-γ-S and GDP-β-S (0.2-200 μM, t=24 h) as evaluated by MTT production in cortical neurons exposed for 24 h to either FeSO4 at final concentration of 3 μM (10A); or both FeSO4 (3 μM) and H2O2 (100 μM) (10B). The results shown are the mean±SEM of three independent experiments in quadruplicate.
Cultured cortical neurons in 96-well plates were treated with different concentrations of FeSO4, or hydrogen peroxide and FeSO4, for 24 h at 37° C. Following exposure to various insults, the cells were treated with ATP-γ-S and GDP-β-S as described. Cells were subsequently incubated for a further 18-24 h as indicated before being assessed for viability measures. Neurons were treated with ATP-γ-S and GDP-β-S at three concentrations ([…]) simultaneously with 1.5, 3 or 6 μM FeSO4 for 24 h. Following 24 h incubation in the presence of both FeSO4 and ATP-γ-S and GDP-β-S cell viability measures were assessed by XTT assay. All experiments were performed in triplicate.
FeSO4 induced a concentration-dependent decrease in cell viability as assessed by XTT assay and morphological assessment following 24 h of exposure (FIG. 9). The neuroprotective effect of ATP-γ-S and GDP-β-S (due to iron chelation) was evaluated in cortical neurons exposed to FeSO4 for 24 h (FIG. 10).

primary neurons = experiment: Protection of primary neuron culture against Aβ42 insult (trypan blue count); assay type: cell-based
Method: Primary neuron cells were cultured in 96 wells plate (95×10^4 per well). After 24 h the cells were treated with 50 μM Aβ42 and various concentrations of APCPP-γ-S (0.04-25 μM) for 48 h. Cell viability was measured by dyeing the cells with trypan blue and counts of the vital cells. The results shown are the mean±S.D of three independent experiments in triplicate (*P<0.05, vs. Aβ42 treatment).
Primary neurons cells were cultured in 96 wells plate (95×10^4 per well). […] Cell viability was measured by dyeing the cells with trypan blue and counts the vital cells. The results shown are the mean±S.D of three independent experiments in triplicate (*P<0.05, **P<0.01 vs. Aβ42 treatment).
In this study, the neuroprotective activity of APCPP-γ-S in neuronal cells exposed to toxic Aβ42 was evaluated. At first we measured the number of the viable neuronal cells after treatment with Aβ42 (5-50 μM) (FIG. 11). At 50 μM Aβ42, 50% of the neuronal culture remained vital. Next, we measured the protective effect of APCPP-γ-S: primary neurons were treated with APCPP-γ-S (0.04-25 μM) and 50 μM Aβ42 for 48 h.

TNAP = biological target: T1, TNAP (Homo sapiens, UniProt P05186); experiment: Hydrolysis by TNAP; assay type: in vitro ADME; details: 1 h
T1 sequence (P05186 18-501): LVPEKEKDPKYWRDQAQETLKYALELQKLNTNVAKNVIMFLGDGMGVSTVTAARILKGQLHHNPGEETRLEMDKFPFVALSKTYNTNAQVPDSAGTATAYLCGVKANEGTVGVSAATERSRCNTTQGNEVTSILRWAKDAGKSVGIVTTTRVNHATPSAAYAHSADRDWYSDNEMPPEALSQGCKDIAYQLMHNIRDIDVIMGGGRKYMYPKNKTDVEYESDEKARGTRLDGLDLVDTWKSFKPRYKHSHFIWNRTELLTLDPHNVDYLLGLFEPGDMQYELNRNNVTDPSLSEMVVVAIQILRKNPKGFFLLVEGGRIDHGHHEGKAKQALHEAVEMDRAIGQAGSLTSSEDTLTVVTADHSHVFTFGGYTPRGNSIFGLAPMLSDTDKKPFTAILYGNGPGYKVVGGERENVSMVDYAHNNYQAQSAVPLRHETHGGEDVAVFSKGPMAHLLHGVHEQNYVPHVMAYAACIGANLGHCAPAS
Excerpt: The metabolic stability of APPCCl2P-α-S (isomer A) and APCPP-γ-S was further proven by their resistance to enzymatic hydrolysis by TNAP.

[1] = literature; cited from earlier work
[2] = OH radical inhibition, Fe^2+/H2O2 system, earlier work; cited from earlier work
PC12 cells [3] = experiment: Inhibition of Fe(II)-induced ROS formation in PC12 cells (DCFH-DA); assay type: cell-based; details: PC12 cells, FeSO4 0.16 μM, 1 h, DCFH-DA; read-out: IC50 inhibition of ROS formation
Method: In this study, nucleoside 5′-phosphorothioate analogues were explored as inhibitors of Fe(II)-induced oxidative stress in PC12 cells used as a neuronal model. Reduction of ROS production in PC12 cells by each one of the tested analogues was measured by DCFH-DA, a radical sensitive indicator. After DCFH-DA was removed, the tested analogue was added to the cells at a final concentration of 0.2-200 μM. Oxidation was initiated by the addition of FeSO4 (0.16 μM) to the wells. The plates were incubated for 1 h at 37° C., during which the absorbance was read by a Tecan fluorometer at 485/530 nm.

Aβ40-Cu^2+ aggregates = biological target: T2, Aβ40-Cu^2+ aggregates (Homo sapiens, UniProt P05067); experiment: DLS, size reduction of Aβ40-Cu^2+ aggregates; details: aggregate alone 1836 nm; 25 μM Aβ40-Cu^2+, pH 6.6
T2 construct: purchased GL-Biochem (Shanghai)
Method: PBS buffer, Aβ40, chelator, Zn(NO3)2, and Cu(NO3)2 solutions were filtered through a […] PVDF syringe filter. 496 μM Aβ40 solution in 10 mM PBS (pH 7.4) and 2 mM Zn(NO3)2 solution were mixed to obtain 200 μM Aβ40-Zn^2+ (1:1 ratio) of a cloudy solution. Similarly, 2 mM Cu(NO3)2 solution was added to 496 μM Aβ40 in 10 mM PBS (pH 6.6). Aβ40-Zn^2+/Cu^2+ (10 μl) solution was transferred to Eppendorf tubes containing 10 mM PBS buffer (64 or 67 μl) followed by the addition of 3 and 6 eq of 2 mM nucleotide (6 or 3 μl) solution and incubation for 45 min at RT. The resulting mixture was incubated for another 30 min at RT and DLS data were then collected in a 70 μl disposable cuvette. The final sample concentrations were 25 μM Aβ40, 25 μM Zn^2+ or Cu^2+, and 150 or 75 μM nucleotide.
Monomeric Aβ40 was incubated with either Cu^2+ or Zn^2+ for 45 min to form a 1:1 peptide metal-ion complex. […] For the Aβ40-Zn^2+ particles the instrument readings indicated a different size distribution. […] We evaluated the capacity of the phosphorothioate analogues to dissolve Aβ40-Cu^2+ or Zn^2+ aggregates, as compared to EDTA and clioquinol known for their ability to dissolve Aβ-M^2+ aggregates (Ritchie et al., 2003; Huang et al., 1997). The reduction of dH of Aβ40-Cu^2+ aggregates by EDTA, clioquinol, or tested compounds was compared to the dH of Aβ-Cu^2+ aggregate itself (FIG. 5A). In addition, the efficacy of the chelators ATP-γ-S, ADP-β-S, APCPP-γ-S and GDP-β-S to resolubilize Aβ40-Cu^2+ and Aβ40-Zn^2+ is described in FIGS. 5B and 5C relative to EDTA and clioquinol. EDTA efficiency in reducing Aβ particle size is considered as 100%.

Aβ40-Zn^2+ aggregates = biological target: T3, Aβ40-Zn^2+ aggregates (Homo sapiens, UniProt P05067); experiment: DLS, re-solubilization of Aβ40-Zn^2+ aggregates; details: EDTA = 100%, clioquinol value refers to FIG. 5B, 5C
T3 construct: Monomeric Aβ40 was incubated with either Cu^2+ or Zn^2+; purchased GL-Biochem (Shanghai)

Aβ28-Cu^+ complex = biological target: T4, Aβ28-Cu^+ complex (Homo sapiens, UniProt P05067); experiment: Titration of Aβ28-Cu^+ complex by chelators monitored by 1H-NMR; details: 6 eq chelator, 0.8 mM Aβ28-Cu^+, pD 7
T4 construct: we first studied Aβ28, as a more soluble fragment of Aβ40; purchased Sigma-Aldrich

[4] = ESR OH radical assay, Cu^+/H2O2 Fenton system; details: N/A = minimal radical production exceeds 10%
[5] = ESR OH radical assay, Fe^2+/H2O2 Fenton system; details: N/A = minimal radical production exceeds 10%
[6] = literature; cited from earlier work; remark: listed apart in the source
PC12 cells [7] = experiment: Stability of nucleotides in PC12 cells
[8] = Table 2, neuroprotection of primary neurons exposed to FeSO4, read-out: IC50
[9] = co-application of FeSO4 3 μM and H2O2 100 μM, read-out: IC50 neuroprotection
[10] = cortical neurons, FeSO4 3 μM, 24 h, read-out: IC50 neuroprotection

T2 sequence (P05067 672-711 limits assumed): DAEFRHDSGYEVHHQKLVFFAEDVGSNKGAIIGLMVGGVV
T4 sequence (P05067 672-699 limits assumed, one chain of several): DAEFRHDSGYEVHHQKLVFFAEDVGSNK
T3 sequence (P05067 672-711 limits assumed): as the sequence (P05067 672-711 limits assumed) above

Row | Structure (SMILES) | log K of Cu^2+ complex [1] | IC50 (cortical neurons; [8]) [nM] | IC50 (cortical neurons; [9]) [nM] | protection (cortical neurons; 24 h) [%] | IC50 (cortical neurons; [10]) [nM] | IC50 (PC12 cells [3]) [µM] | dH (particle size) of Aβ40-Cu^2+ after chelator (Aβ40-Cu^2+ aggregates) [nm] | effect on Aβ28-Cu^+ 1H-NMR spectrum (Aβ28-Cu^+ complex) | also measured
1 | Nc1ncnc2c1ncn2[C@@H]1O[C@H](COP(=O)(O)OP(=O)(O)OP(=O)(O)O)[C@@H](O)[C@H]1O [ATP, adenosine triphosphate] | 6.34 | – | – | – | – | – | – | – | IC50 (cortical neurons; Cortical neurone, Table 2, neuroprotection of primary neurons exposed to FeSO4, read-out: IC50): 30000 ± 2100 nM; neuronal cells maintained (primary neurons; at 25 μM, 50 μM Aβ42, 48 h): 45%; Hydrolysis by TNAP (TNAP): 100%
2 | Nc1ncnc2c1ncn2[C@@H]1O[C@H](COP(=O)(O)OP(=O)(O)OP(O)(O)=S)[C@@H](O)[C@H]1O [ATP-γ-S, Adenosine 5′-[γ-thio]-triphosphate] | – | 10 ± 8 | 1000 | 100 | 10 | 0.18 | 110 | – | times more active than ATP [2]: 100; times more active than Trolox [2]: 20; IC50 (cortical neurons; primary cortical neuronal cells, read-out: IC50 protection from damage caused by FeSO4): 10 nM; IC50 (primary neurons; 50 μM Aβ42, 48 h, read-out: concentration that maintained 50% of neuronal cells): 800 nM; IC50 (primary neurons; primary neurons, read-out: IC50 protection from Aβ42 insult): 800 nM
3 | Oc1c(I)cc(Cl)c2cccnc12 [Clioquinol, 5-chloro-7-iodoquinolin-8-ol] | – | – | – | – | – | – | 127 | slightly sharpened, yet, no signal pattern emerged | efficacy in resolubilizing aggregates relative to EDTA (Aβ40-Zn^2+ aggregates): ca. 75 % of EDTA efficacy
4 | O=C(O)CN(CCN(CC(=O)O)CC(=O)O)CC(=O)O [EDTA, ethylenediamine tetraacetic acid] | 18.8 | – | – | – | – | – | – | – | IC90 [4]: 110 ± 7 µM; IC90 [5]: 98 ± 1 µM; log K of Zn^2+ complex [6]: 16.5
5 | Nc1nc2c(ncn2[C@@H]2O[C@H](COP(=O)(O)OP(O)(O)=S)[C@@H](O)[C@H]2O)c(=O)[nH]1 [GDP-β-S, guanosine 5′-[β-thio]diphosphate] | – | 80 ± 3 | 4000 | 130 | 8 | 10 | – | partial recovery of Aβ28 aromatic signals | fold more stable in PC12 cells than parent nucleotide (GDP, ADP) (PC12 cells [7]): 4.5 fold
